Assay results as given in patent US20210371374A1, “METAL DI-AMINO ACID CHELATES OR METAL TRI-AMINO ACID CHELATES” (Balchem Corporation, priority 2020, published 2021).
Peptide text beside a SMILES is read from it.

Tests used:
Caco-2 cells = experiment: Cellular uptake in Caco-2 cells, BioVision colorimetric magnesium uptake assay kit; format: in vitro ADME; settings: compared with other magnesium complexes
Text: 18 MΩ Ultrapure water was obtained in-house.

[1] = Stability of Mg(G3) in solution via 1H NMR; format: physicochemical; settings: 1H NMR in D2O; periods up to 72 hrs
Text: At 72 hrs, an observable upfield shift occurs, which may be due to isomer formation. There is no observable change in proton integration. NMR taken in D2O.

| Compound | cellular uptake in CaCo-2 cell line (FIG. 72) (Caco-2 cells) | stability in solution [1] |
| --- | --- | --- |
| NCC(=O)[O-].NCC(=O)[O-].[Mg+2] [MgBG, magnesium bisglycinate, reference compound] | significantly less cellular uptake than Mg(G3) |  |
| NCC(=O)NCC(=O)NCC(=O)[O-].[Mg+2].[OH-] [Mg(G3), magnesium 2-[[2-[(2-aminoacetyl)amino]acetyl]amino]acetic acid chelate] (H-Gly-Gly-Gly-OH) |  | considerable stability |
| magnesium diglycine [MgG2] | relatively linear uptake |  |
